Structures can show the parent of a compound that is named as a salt.

Here are results for nine molecules from patent US20090326003A1, “PYRAZOLO (3, 4-B) PYRIDINE DERIVATIVES AS PDE4 INHIBITORS” (priority 2006, published 2009).

T1 sequence (Q07343 1-564 isoform Q07343-2): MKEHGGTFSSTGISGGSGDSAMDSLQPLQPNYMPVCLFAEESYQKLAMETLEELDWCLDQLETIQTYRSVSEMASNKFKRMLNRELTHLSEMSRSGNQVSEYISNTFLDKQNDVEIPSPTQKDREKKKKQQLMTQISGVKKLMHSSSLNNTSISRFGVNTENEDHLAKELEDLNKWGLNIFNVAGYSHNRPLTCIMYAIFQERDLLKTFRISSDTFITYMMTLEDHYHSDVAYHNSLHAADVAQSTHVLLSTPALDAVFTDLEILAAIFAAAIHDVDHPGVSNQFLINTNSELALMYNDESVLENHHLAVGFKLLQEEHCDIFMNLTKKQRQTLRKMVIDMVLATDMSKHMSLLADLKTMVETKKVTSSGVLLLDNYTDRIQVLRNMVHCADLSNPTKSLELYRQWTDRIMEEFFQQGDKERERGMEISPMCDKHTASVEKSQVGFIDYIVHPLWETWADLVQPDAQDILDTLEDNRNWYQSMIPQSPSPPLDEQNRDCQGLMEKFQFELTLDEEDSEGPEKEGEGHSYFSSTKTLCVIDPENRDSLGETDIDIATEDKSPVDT

The experiment has as its target T1, PDE4B (human recombinant) (Homo sapiens, UniProt Q07343).
T1 construct: made in house
In words: PDE4B inhibition, fluorescence polarisation (FP) and/or SPA assay. The class given is biochemical. The following applies: n=1 or average of 2 or more readings, accuracy ±about 0.5 log unit, read-out: PDE4B pIC50 (generally in FP assay) (±about 0.5) (converted). The text has this:
Human recombinant PDE4B, in particular the 2B splice variant thereof (HSPDE4B2B), is disclosed in WO 94/20079 and also M. M. McLaughlin et al., “A low Km, rolipram-sensitive, cAMP-specific phosphodiesterase from human brain: cloning and expression of cDNA, biochemical characterisation of recombinant protein, and tissue distribution of mRNA”, J. Biol. Chem., 1993, 268, 6470-6476. For example, in Example 1 of WO 94/20079, human recombinant PDE4B is described as being expressed in the PDE-deficient yeast Saccharomyces cerevisiae strain GL62, e.g. after induction by addition of 150 uM CuSO4, and 100,000×g supernatant fractions of yeast cell lysates are described for use in the harvesting of PDE4B enzyme.
The ability of compounds to inhibit catalytic activity at PDE4B or 4D (human recombinant), PDE3 (from bovine aorta), PDE5 (human recombinant) or PDE6 (from bovine retina) can optionally be determined by Scintillation Proximity Assay (SPA) in a 96-well format.
Test compounds (as a solution in DMSO, preferably about 2 microliter (ul) volume of DMSO solution) are preincubated at ambient temperature (room temperature, e.g. 19-23° C.) in Wallac Isoplates (code 1450-514) with PDE enzyme in 50 mM Tris-HCl buffer pH 7.5, 8.3 mM MgCl2, 1.7 mM EGTA, 0.05% (w/v) bovine serum albumin for 10-30 minutes (usually 30 minutes). The enzyme concentration is adjusted so that no more than 20% hydrolysis of the substrate defined below occurs in control wells without compound, during the incubation. For the PDE3, PDE4B and PDE4D assays, [5′,8-3H]Adenosine 3′,5′-cyclic phosphate (Amersham Pharmacia Biotech, code TRK.559; or Amersham Biosciences UK Ltd, Pollards Wood, Chalfont St Giles, Buckinghamshire HP8 4SP, UK) is added to give 0.05 uCi per well and about 10 nM final concentration. For the PDE5 and PDE6 assays, [8-^3H]Guanosine 3′,5′-cyclic phosphate (Amersham Pharmacia Biotech, code TRK.392) is added to give 0.05 uCi per well and about 36 nM final concentration. Plates containing assay mixture, preferably approx. 100 ul volume of assay mixture, are mixed on an orbital shaker for 5 minutes and incubated at ambient temperature for 1 hour. Phosphodiesterase SPA beads (Amersham Pharmacia Biotech, code RPNQ 0150) are added (about 1 mg per well) to terminate the assay. Plates are sealed and shaken and allowed to stand at ambient temperature for 35 minutes to 1 hour (preferably 35 minutes) to allow the beads to settle. Bound radioactive product is measured using a WALLAC TRILUX 1450 Microbeta scintillation counter. For inhibition curves, 10 concentrations (e.g. 1.5 nM-30 uM) of each compound are assayed. Curves are analysed using ActivityBase and XLfit (ID Business Solutions Limited, 2 Ocean Court, Surrey Research Park, Guildford, Surrey GU2 7QB, United Kingdom) Results are expressed as pIC50 values.
The ability of compounds to inhibit catalytic activity at PDE4B (human recombinant) or PDE4D (human recombinant) can optionally be determined by IMAP Fluorescence Polarisation (FP) assay (IMAP Explorer kit, available from Molecular Devices Corporation, Sunnydale, Calif., USA; Molecular Devices code: R8062) in 384-well format.
The IMAP FP assay is able to measure PDE activity in an homogenous, non-radioactive assay format. The FP assay uses the ability of immobilised trivalent metal cations, coated onto nanoparticles (tiny beads), to bind the phosphate group of FI-AMP that is produced on the hydrolysis of fluorescein-labelled (FI) cyclic adenosine mono-phosphate (FI-cAMP) to the non-cyclic FI-AMP form. […] Binding of FI-AMP product to the beads (coated with the immobilised trivalent cations) slows the rotation of the bound FI-AMP and leads to an increase in the fluorescence polarisation ratio of parallel to perpendicular light. Inhibition of the PDE reduces/inhibits this signal increase. […]
Take `CCc1nc2c(cnn2CC)c(NC2CCN(C(N)=O)CC2)c1CNC(=O)CCc1ccc(C(=O)NCc2c(CC)nc3c(cnn3CC)c2NC2CCN(C(N)=O)CC2)cc1` [Example 14, 4-({5-[({3-[4-({[(4-{[1-(aminocarbonyl)-4-piperidinyl]amino}-1,6-diethyl-1H-pyrazolo[3,4-b]pyridin-5-yl)methyl]amino}carbonyl)phenyl]propanoyl}amino)methyl]-1,6-diethyl-1H-pyrazolo[3,4-b]pyridin-4-yl}amino)-1-piperidinecarboxamide trifluoroacetate]: the IC50 was 0.0158 to 0.1 nM.
As for `CCc1nc2c(cnn2CC)c(NC2CCOCC2)c1CNC(=O)c1ccc(-c2ccc(C(=O)NCc3c(CC)nc4c(cnn4CC)c3NC3CCOCC3)cn2)nc1` [Example 34, N,N′-bis{[1,6-diethyl-4-(tetrahydro-2H-pyran-4-ylamino)-1H-pyrazolo[3,4-b]pyridin-5-yl]methyl}-2,2′-bipyridine-5,5′-dicarboxamide], the figure is 0.126 to 1 nM; as for `CCc1nc2c(cnn2CC)c(NC2CCN(C(N)=O)CC2)c1CNC(=O)Cc1ccc(C(=O)NCc2c(CC)nc3c(cnn3CC)c2NC2CCN(C(N)=O)CC2)cc1` [Example 15, 4-({5-[({[4-({[(4-{[1-(aminocarbonyl)-4-piperidinyl]amino}-1,6-diethyl-1H-pyrazolo[3,4-b]pyridin-5-yl)methyl]amino}carbonyl)phenyl]acetyl}amino)methyl]-1,6-diethyl-1H-pyrazolo[3,4-b]pyridin-4-yl}amino)-1-piperidinecarboxamide trifluoroacetate], 0.0158 to 0.1 nM.
As for `CCc1nc2c(cnn2CC)c(NC2CCN(C(N)=O)CC2)c1CNC(=O)CCC(=O)NCc1c(CC)nc2c(cnn2CC)c1NC1CCN(C(N)=O)CC1` [Example 17, N,N′-bis[(4-{[1-(aminocarbonyl)-4-piperidinyl]amino}-1,6-diethyl-1H-pyrazolo[3,4-b]pyridin-5-yl)methyl]butanediamide trifluoroacetate], the figure is 0.126 to 1 nM.
For `CCc1nc2c(cnn2CC)c(NC2CCN(C(N)=O)CC2)c1CNC(=O)CC(C)(C)CC(=O)NCc1c(CC)nc2c(cnn2CC)c1NC1CCN(C(N)=O)CC1` [Example 19, N,N′-bis[(4-{[1-(aminocarbonyl)-4-piperidinyl]amino}-1,6-diethyl-1H-pyrazolo[3,4-b]pyridin-5-yl)methyl]-3,3-dimethylpentanediamide trifluoroacetate] the value was 0.0158 to 0.1 nM; for `CCc1nc2c(cnn2CC)c(NC2CCOCC2)c1CNC(=O)Cc1ccc(CC(=O)NCc2c(CC)nc3c(cnn3CC)c2NC2CCOCC2)cc1` [Example 6, 2,2′-benzene-1,4-diylbis(N-{[1,6-diethyl-4-(tetrahydro-2H-pyran-4-ylamino)-1H-pyrazolo[3,4-b]pyridin-5-yl]methyl}acetamide)], 0.126 to 1 nM.
For the molecule `CCc1nc2c(cnn2CC)c(NC2CCN(C(N)=O)CC2)c1CNC(=O)C1CCC(C(=O)NCc2c(CC)nc3c(cnn3CC)c2NC2CCN(C(N)=O)CC2)C1` (stereo not drawn) [Example 20, N,N′-bis[(4-{[1-(aminocarbonyl)-4-piperidinyl]amino}-1,6-diethyl-1H-pyrazolo[3,4-b]pyridin-5-yl)methyl]-1,3-cyclopentanedicarboxamide trifluoroacetate], the IC50 is 0.0158 to 0.1 nM.
As for `CCc1nc2c(cnn2CC)c(NC2CCOCC2)c1CNC(=O)c1ccc(Oc2ccc(C(=O)NCc3c(CC)nc4c(cnn4CC)c3NC3CCOCC3)cc2)cc1` [Example 24, 4,4′-oxybis(N-{[1,6-diethyl-4-(tetrahydro-2H-pyran-4-ylamino)-1H-pyrazolo[3,4-b]pyridin-5-yl]methyl}benzamide)], the figure is 0.126 to 1 nM.
In the case of `CCc1nc2c(cnn2CC)c(NC2CCN(C(N)=O)CC2)c1CNC(=O)c1ccc(-c2ccc(C(=O)NCc3c(CC)nc4c(cnn4CC)c3NC3CCN(C(N)=O)CC3)cc2)cc1` [Example 26, N,N′-bis[(4-{[1-(aminocarbonyl)-4-piperidinyl]amino}-1,6-diethyl-1H-pyrazolo[3,4-b]pyridin-5-yl)methyl]-4,4′-biphenyldicarboxamide], the IC50 is 0.0158 to 0.1 nM.
